Molecules are shown by their SMILES.

For series [1] the following is noted: in acetonitrile; cited from earlier work.
The conditions of series [2]: in acetonitrile; cited from earlier work. The source holds these as a separate data set.
Series [3] can be described thus: UV-Vis absorption spectroscopy. In kind it is physicochemical. The following applies: acetonitrile/2% DMSO. The protocol: UV-Vis absorption spectroscopy is performed on a Cary 1E spectrophotometer. […]
[…] […] From each stock solution, 5 dilutions with concentrations of 2.5 μm, 10 μM, 17 μM, 25 μm and 35 μM are made. UV-spectra of each dilution are recorded from 200 to 400 nm, using a quarz cuvette with a pathlength of 1 cm. […] A linear fit is carried out for each series of measurements. The extinction coefficient ε at 337 nm is given by the slope of the linear regression.

The target in series [4] is T1, avidin (Gallus gallus, UniProt P02701).
T1 construct: purchased Molecular Probes (Eugene, Oreg.) A-2767
T1 sequence (P02701 25-152): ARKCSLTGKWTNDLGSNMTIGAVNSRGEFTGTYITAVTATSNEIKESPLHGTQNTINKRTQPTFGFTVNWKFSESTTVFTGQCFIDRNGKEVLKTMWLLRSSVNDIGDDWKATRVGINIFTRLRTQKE
In words: Time-resolved fluorescence depolarisation on binding of avidin. The note with it: PBS/5% DMSO. The protocol: Picosecond time-resolved fluorescence measurements are recorded according to the single photon counting technique [Lakowicz, 1983 p 52-93, 112-153, 156-185]. An Ar^+-pumped Ti:Sapphire laser (model MIRA 900, Coherent, Santa Clara, USA) provided under mode-locked conditions ultrashort pulses (FWHM=150 fs) with a frequency of 75 MHz. To reduce the repetition rate to 4.7 MHz, a pulse picker (model 9200, Coherent, Santa Clara, USA) is inserted into the beam. […] Fluorescence photons are collected in a Spex 1681 single grating monochromator (Spex, Edison, USA) and detected with the Hamamatsu R3809U microchannel plate (Hamamatsu, Shimokanzo, Japan). […] The voltage values which correspond to the time passed between excitation and emission of a fluorescence photon in a single experiment are stored in the Spectrum Master 921 (Ortec, Oak Ridge, USA) which is connected to the multichannel emulation program Maestro (Ortec, Oak Ridge, USA). […]
c. Binding of AIDA conjugate 8 to avidin-BODIPY detected by rotational diffusion and energy transfer: Energy transfer between the indazole moiety in 8 and the 3.3 BODIPY-FL lables on avidin by time-resolved fluorescence spectroscopy.
Binding of avidin labelled with BODIPY-FL to 8 creates a further depolarisation mode for the indazole fluorescence: Fluorescence resonance energy transfer between the indazole moiety of 8 and the BODIPY-FL labels. […]

The target of series [5] is T1, avidin. The experiment in a line: FRET / quenching with unlabelled avidin (tryptophan donor, AIDA acceptor). The following applies: unlabelled avidin, conjugate as acceptor. In kind it is binding. How it is done:
(§1) For solubility reasons, 4e is spectroscopically characterized in THF. All complexation reactions and fluorescence resonance energy transfer measurements are performed in PBS/5% DMSO at 25° C., unless indicated otherwise.
(§2) Spectral bandwidths are set to 8 and 16 nm for excitation and emission, respectively. Measurements are performed at 25° C. in a 750 μL quartz cuvette (10 mm optical pathlength) without stirring after initial mixing. A concentration of 50 nM of 9 or 11 is used for complexation with 1 μM of (fluorescent) avidin. […] All titrations are performed in magic angle setting, with the emission wavelength set to […] in experiments where the indazole is the acceptor, and with an excitation spectrum recorded from 250 nm to 360 nm. In experiments where indazole is used as donor and Lucifer Yellow or BODIPY FL is the acceptor, the excitation wavelength is set to 338 nm or 325 nm. The fluorescence emission is collected between 360 nm and 700 nm. The spectra are corrected for Raman scattering from the PBS solution, for dilution, and for inner filter effects due to protein additions, The signal is adjusted for lamp intensity changes by ratio mode detection with a Rhodamine B quantum counter in the reference channel. A WG 360 emission cutoff filter is used for straylight reduction. Data are collected in 2 nm increments with 1 second integration time.
An emission wavelength at 480 nm was chosen because the tryptophan fluorescence of avidin had almost reached the baseline level at this emission energy, resulting in only minor avidin fluorescence contribution between 250 and 370 nm. […] This quenching effect can be attributed to all radiative and non-radiative processes occurring to 11 in the vicinity of the tryptophans in the binding cleft. Corresponding to the ratio of the negative and positive areas under the fluorescence difference curve (black), 62% of this total quenching effect is fluorescence resonance energy transfer. From 250 to 305 nm the enhancement of the tryptophan and tyrosine fluorescence intensity is 72% based on the sum of 11 and avidin.

Series [6] can be described thus: Steady-state fluorescence spectroscopy (excitation and emission spectra). In kind it is physicochemical. The note with it: acetonitrile/2% DMSO. The protocol: Steady-state fluorescence measurements are performed on a SLM 8000C spectro-fluorometer equipped with JD490 photomultipliers and a 450 W Xenon Arclamp (SLM Instruments, Urbana, Ill.).
[…] Spectral bandwidths are set to 1 and 4 nm for excitation and emission, respectively. Spectra are recorded in single photon counting mode. Changes in lamp intensity are corrected with a quantum counter in the reference channel, measured in slow mode. Gain is set to x 100 with a high voltage (HV) of 640 V. Integration time is 2 seconds. For excitation spectra measurements, the emission wavelength is set to 397 nm and the sample is excited from 200 to 400 nm. For recording emission spectra, the sample is excited at 342 nm and the emission is recorded from 350 to 540 nm. The data are averaged over two scans.

The target in the next series is T2, avidin-BODIPY-FL (Gallus gallus, UniProt P02701).
T2 construct: BODIPY FL (chemical fluorescent label, about 3.3 per avidin); purchased Molecular Probes (Eugene, Oreg.) A-2641
T2 sequence (P02701 25-152): as above
In words: FRET / quenching with avidin-BODIPY-FL (AIDA donor, BODIPY-FL acceptor). In kind it is binding. How it is done:
as §1, §2
In these experiments 11 was used as donor and BODIPY-FL as acceptor. At an excitation wavelength of 338 nm the emission of 11 between 360 nm and 516 nm is strongly quenched by approximately 80% in the complexed form. The standard definition for energy transfer efficiency, E=1−Fda/Fd, would result in E≅0.8. […] The approximately 80% reduction in signal intensity of 11 can be caused either by FRET or from local quenching of the fluorescence of 11 mainly by ground state interactions. […] Due to the broad fluorescence emission of 11 in water the detection wavelength can be shifted up to 500 nm which is at lower energy than most background fluorescence signals from small chemical compounds.

`c1ccc2[nH]ncc2c1` [1H-indazole]: in series [1], the maximum of absorption is 294 nm. For the same molecule, the “maximum of fluorescence emission” value in series [2] is listed as 298 nm.

Turning to `NC(=O)c1ccc(-n2nc(-c3ccc(C(=O)NCCCNC(=O)CCCCC4SCC5NC(=O)NC54)cc3)c3ccccc32)cc1` (stereo not drawn) [compound 8, 3′(+)-4-{3-[4-(3′-Biotinoylaminopropyl)-aminocarbonyl]phenyl-1H-indazol-1-yl}-benzoic acid Amide], in series [3], the “Absorption λmax” value was found to be 331 nm and the “ε (at absorption λmax)” value is 32158 M⁻¹ cm⁻¹. Also, on avidin [4], the “fluorescence depolarisation on binding of avidin (unlabelled)” value is listed as “slower depolarisation”. For the same molecule, on avidin [5], the “enhanced energy transfer (tryptophan/indazole)” value stood at 120% and the “increase in indazole fluorescence emission on avidin complexation” value is on record as 26%. Moreover, in series [6], the “Emission range in parenthesis” value is 360-480 nm, the “Emission λmax” value is given as 394 nm, the “Excitation range in parenthesis” value is reported as 310-360 nm and the “Excitation λmax” value is listed as 332 nm. Further, the “quenching of indazole (donor) emission in complex with avidin-BODIPY-FL” value at avidin-BODIPY-FL (50 nM conjugate, 1 μM avidin-BODIPY-FL, excitation 338 nm, emission 360-516 nm) was determined as 93.5%. Further, the “fluoresence energy transfer (acceptor sensitization)” value at avidin-BODIPY-FL (avidin-BODIPY complex) came to 48%.

Source of the values: patent US20010005752A1, “Fluorescent dyes (AIDA) for solid phase and solution phase screening” (priority 1998, published 2001).
